Measurements as given in paper PMC5515279 (2014).

What was measured:
[1] = tested on: rUA[Q] (RNA, G4) UAGGGUUAGGGUUAGGGUUAGGG; test: fluorescence titration; details: K+ 0.1 M; 25 mM Tris-HCl pH 7.5, 1 mM EDTA, 18 °C (general conditions)
[2] = tested on: TA[Q] (DNA, G4) TAGGGTTAGGGTTAGGGTTAGGG; test: fluorescence titration; details: K+ 0.1 M; 25 mM Tris-HCl pH 7.5, 1 mM EDTA, 18 °C; 0.5 μM compound

SMILES | binding constant [1] | Kd [2] | K11 [2]
COc1ccc2cc3[n+](cc2c1OC)CCc1cc2c(cc1-3)OCO2 |  |  | (4.1 ± 0.4) × 10^5 M^-1
c1c2c(cc3c1OCO3)-c1cc3ccc4c(c3c[n+]1CC2)OCO4 |  |  | (1.4 ± 0.5) × 10^6 M^-1

Second part, the compound after the results:

binding constant [1] | Kd [2] | K11 [2] | SMILES
(1.2 ± 0.2) × 10^6 M^-1 | 0.037 ± 0.008 µM |  | COc1cc2c(cc1OC)-c1cc3ccc4c(c3c[n+]1CC2)OCO4
 |  | (4.1 ± 0.4) × 10^5 M^-1 | COc1cc2c(cc1OC)-c1cc3ccc(OC)c(OC)c3c[n+]1CC2
 |  | (5.1 ± 0.4) × 10^5 M^-1 | Cc1c2[n+](cc3c4c(ccc13)OCO4)CCc1cc3c(cc1-2)OCO3
